Reference: ChEMBL document CHEMBL1201862, “PubChem BioAssay data set” (2004)
Active and inactive are the calls of the source.

Key:
[1] = target: T1, Mitogen-activated protein kinase kinase kinase kinase 2 (Homo sapiens, UniProt Q12851); format: functional;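 further: measured as one member of a kinome-wide kinase panel, with MAP4K2 as the panel entry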
T1 sequence (Q12851 whole entry): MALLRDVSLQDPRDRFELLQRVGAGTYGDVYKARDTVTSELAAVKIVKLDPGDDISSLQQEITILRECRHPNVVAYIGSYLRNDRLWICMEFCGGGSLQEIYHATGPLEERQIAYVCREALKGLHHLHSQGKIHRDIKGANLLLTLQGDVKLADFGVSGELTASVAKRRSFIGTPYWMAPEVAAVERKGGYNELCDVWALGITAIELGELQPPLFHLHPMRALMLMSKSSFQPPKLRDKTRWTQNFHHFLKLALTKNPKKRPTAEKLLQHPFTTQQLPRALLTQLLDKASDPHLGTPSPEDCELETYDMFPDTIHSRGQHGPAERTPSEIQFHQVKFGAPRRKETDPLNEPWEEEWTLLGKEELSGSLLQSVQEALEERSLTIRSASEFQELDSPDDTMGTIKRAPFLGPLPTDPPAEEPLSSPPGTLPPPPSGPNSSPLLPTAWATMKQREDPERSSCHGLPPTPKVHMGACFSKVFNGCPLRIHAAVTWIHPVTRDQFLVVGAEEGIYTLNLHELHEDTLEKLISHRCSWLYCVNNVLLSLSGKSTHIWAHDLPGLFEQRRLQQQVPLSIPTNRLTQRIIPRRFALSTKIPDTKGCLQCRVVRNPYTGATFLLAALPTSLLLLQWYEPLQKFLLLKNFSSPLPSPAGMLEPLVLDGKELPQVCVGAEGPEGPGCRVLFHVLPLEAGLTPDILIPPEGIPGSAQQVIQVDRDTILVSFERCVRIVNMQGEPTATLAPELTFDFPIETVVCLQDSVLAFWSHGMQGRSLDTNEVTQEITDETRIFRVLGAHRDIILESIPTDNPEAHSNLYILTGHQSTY

[2] = target: Rho-associated protein kinase 1 (Homo sapiens, UniProt Q13464); format: functional;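 further: measured within a broad kinome-wide panel profiling many kinases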
[3] = target: Proto-oncogene tyrosine-protein kinase receptor Ret (Homo sapiens, UniProt P07949); format: functional;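 further: measured within a kinome-wide profiling panel, RET as the panel member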
[4] = target: Vascular endothelial growth factor receptor 1 (Homo sapiens, UniProt P17948); format: functional;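 further: measured within a kinome-wide profiling panel, FLT1 as the panel member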
[5] = target: T2, Inhibitor of nuclear factor kappa-B kinase subunit epsilon (Homo sapiens, UniProt Q14164); assay: Navigating the Kinome. Panel member name: IKBKE; format: functional
T2 sequence (Q14164 whole entry): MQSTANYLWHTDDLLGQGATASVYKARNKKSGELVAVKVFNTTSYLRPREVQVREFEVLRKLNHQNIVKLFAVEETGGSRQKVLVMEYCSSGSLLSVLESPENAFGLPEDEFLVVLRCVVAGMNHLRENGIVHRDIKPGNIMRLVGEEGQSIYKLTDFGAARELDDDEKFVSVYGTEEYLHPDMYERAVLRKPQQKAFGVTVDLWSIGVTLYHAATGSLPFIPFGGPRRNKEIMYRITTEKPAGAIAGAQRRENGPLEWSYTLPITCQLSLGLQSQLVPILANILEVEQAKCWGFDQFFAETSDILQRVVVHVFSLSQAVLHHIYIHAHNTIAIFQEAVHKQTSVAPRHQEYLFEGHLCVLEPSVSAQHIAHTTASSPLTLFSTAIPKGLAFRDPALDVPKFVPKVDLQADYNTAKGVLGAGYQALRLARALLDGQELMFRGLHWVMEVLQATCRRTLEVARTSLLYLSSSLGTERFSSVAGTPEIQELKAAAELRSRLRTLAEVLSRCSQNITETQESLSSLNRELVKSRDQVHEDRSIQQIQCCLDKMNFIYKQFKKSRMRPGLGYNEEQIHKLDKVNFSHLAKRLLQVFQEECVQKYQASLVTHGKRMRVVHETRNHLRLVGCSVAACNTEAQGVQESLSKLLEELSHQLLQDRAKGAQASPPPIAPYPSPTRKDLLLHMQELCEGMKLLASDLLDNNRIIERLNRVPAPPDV

Aurora kinase A = Aurora kinase A (Homo sapiens, UniProt O14965); format: functional;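 further: value from the Navigating the Kinome kinase panel profiling, panel entry STK6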
[6] = target: Insulin-like growth factor 1 receptor (Homo sapiens, UniProt P08069); assay: Navigating the Kinome. Panel member name: IGF1R; format: functional
[7] = target: Mitogen-activated protein kinase 8 (Homo sapiens, UniProt P45983); format: functional;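 further: value comes from one member of a kinome-wide kinase profiling panel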
[8] = target: Serine/threonine-protein kinase TAO1 (Homo sapiens, UniProt Q7L7X3); format: functional
[9] = target: 5'-AMP-activated protein kinase catalytic subunit alpha-1 (Homo sapiens, UniProt Q13131); format: functional
[10] = target: T3, Long-chain-fatty-acid--AMP ligase FadD28 (Mycobacterium tuberculosis, UniProt P9WQ59); assay: Fluorescence polarization aasay to screen for inhibitors that compete for the binding of FadD28 to a bisubstrate Measured in Biochemical System Using Plate Reader - 2147-01_Inhibitor_Dose_CherryPick_Activity.; format: functional, Mycobacterium tuberculosis H37Rv
T3 sequence (P9WQ59 whole entry): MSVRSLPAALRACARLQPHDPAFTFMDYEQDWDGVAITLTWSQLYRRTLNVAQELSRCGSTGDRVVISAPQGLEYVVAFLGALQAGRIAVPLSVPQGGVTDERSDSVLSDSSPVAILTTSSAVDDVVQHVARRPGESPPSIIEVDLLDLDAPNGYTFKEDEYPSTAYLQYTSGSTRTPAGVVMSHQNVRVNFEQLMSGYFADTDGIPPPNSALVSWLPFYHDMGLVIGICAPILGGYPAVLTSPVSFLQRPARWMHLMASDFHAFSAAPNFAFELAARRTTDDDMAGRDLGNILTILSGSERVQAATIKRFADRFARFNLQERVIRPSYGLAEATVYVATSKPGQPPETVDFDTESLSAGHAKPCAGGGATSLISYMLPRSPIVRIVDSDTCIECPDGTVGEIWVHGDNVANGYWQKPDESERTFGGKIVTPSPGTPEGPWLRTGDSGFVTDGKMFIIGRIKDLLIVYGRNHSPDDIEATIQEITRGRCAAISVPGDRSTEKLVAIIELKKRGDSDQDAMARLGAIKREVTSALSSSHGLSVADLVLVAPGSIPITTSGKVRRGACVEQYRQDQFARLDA

Hexokinase HKDC1 = Hexokinase HKDC1 (Homo sapiens, UniProt Q2TB90); assay: HKDC1 hexokinase inhibitors, dose response, biochemical, W721R variant (AID 504729); format: functional

Rho-associated protein kinase 1, sequence (Q13464 whole entry): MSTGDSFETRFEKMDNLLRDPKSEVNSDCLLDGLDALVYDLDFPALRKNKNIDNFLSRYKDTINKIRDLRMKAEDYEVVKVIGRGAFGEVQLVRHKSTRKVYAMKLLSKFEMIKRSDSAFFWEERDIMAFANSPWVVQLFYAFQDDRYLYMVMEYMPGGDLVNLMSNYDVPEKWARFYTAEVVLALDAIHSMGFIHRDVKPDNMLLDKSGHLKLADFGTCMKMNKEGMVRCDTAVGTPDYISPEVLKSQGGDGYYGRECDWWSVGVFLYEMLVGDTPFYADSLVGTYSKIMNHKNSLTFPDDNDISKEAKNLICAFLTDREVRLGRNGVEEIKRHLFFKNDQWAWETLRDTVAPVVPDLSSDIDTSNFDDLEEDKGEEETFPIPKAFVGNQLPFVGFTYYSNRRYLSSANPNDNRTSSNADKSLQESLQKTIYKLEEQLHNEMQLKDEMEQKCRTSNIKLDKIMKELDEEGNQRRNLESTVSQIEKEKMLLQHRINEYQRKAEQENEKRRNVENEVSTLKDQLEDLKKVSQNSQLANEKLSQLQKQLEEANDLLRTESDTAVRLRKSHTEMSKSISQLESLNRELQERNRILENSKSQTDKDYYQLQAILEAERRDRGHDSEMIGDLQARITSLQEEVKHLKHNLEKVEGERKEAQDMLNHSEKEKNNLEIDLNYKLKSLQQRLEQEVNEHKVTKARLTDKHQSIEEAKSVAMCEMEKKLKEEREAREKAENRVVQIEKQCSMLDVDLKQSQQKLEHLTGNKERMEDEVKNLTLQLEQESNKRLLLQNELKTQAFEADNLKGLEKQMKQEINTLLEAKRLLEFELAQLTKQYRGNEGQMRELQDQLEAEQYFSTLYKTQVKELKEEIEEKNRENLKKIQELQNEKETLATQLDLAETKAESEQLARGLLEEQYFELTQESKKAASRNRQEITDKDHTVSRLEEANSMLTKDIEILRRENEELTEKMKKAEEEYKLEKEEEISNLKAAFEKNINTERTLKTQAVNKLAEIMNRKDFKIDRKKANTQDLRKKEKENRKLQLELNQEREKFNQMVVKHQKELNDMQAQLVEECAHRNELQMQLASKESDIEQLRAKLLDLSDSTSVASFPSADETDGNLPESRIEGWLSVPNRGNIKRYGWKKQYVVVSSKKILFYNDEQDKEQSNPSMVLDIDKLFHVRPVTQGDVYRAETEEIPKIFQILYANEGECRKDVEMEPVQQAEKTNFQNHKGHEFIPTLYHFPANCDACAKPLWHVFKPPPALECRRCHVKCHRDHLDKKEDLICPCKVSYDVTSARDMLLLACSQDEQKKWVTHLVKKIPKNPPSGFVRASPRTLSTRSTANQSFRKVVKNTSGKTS
5'-AMP-activated protein kinase catalytic subunit alpha-1, sequence (Q13131 whole entry): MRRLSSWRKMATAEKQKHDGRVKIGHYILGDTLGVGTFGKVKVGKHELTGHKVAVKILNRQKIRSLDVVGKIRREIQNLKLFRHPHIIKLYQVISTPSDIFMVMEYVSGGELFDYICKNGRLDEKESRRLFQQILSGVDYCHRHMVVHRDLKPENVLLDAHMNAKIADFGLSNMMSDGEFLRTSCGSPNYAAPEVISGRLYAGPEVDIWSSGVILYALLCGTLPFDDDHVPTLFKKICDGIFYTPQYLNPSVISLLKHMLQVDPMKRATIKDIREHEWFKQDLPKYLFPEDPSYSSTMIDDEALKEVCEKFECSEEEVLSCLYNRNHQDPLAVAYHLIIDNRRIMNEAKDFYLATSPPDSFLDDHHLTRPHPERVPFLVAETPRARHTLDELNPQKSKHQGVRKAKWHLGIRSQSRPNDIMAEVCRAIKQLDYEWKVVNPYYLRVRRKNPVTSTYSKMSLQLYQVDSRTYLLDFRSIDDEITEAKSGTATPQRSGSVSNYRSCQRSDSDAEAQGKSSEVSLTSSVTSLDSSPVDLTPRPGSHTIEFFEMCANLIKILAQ
Mitogen-activated protein kinase 8, sequence (P45983 whole entry): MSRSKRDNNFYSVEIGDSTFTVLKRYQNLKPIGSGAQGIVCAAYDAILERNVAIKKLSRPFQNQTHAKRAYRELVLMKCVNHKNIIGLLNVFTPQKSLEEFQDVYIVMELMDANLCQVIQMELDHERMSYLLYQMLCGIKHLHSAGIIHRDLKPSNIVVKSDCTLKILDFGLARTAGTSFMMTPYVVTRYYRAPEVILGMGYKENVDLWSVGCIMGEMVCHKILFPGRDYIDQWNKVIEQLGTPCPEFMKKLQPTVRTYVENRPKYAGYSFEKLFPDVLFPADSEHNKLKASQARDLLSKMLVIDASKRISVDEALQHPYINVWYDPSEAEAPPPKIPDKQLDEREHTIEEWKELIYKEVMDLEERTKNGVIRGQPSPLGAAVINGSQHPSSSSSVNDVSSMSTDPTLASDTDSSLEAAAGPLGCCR
Proto-oncogene tyrosine-protein kinase receptor Ret, sequence (P07949 whole entry): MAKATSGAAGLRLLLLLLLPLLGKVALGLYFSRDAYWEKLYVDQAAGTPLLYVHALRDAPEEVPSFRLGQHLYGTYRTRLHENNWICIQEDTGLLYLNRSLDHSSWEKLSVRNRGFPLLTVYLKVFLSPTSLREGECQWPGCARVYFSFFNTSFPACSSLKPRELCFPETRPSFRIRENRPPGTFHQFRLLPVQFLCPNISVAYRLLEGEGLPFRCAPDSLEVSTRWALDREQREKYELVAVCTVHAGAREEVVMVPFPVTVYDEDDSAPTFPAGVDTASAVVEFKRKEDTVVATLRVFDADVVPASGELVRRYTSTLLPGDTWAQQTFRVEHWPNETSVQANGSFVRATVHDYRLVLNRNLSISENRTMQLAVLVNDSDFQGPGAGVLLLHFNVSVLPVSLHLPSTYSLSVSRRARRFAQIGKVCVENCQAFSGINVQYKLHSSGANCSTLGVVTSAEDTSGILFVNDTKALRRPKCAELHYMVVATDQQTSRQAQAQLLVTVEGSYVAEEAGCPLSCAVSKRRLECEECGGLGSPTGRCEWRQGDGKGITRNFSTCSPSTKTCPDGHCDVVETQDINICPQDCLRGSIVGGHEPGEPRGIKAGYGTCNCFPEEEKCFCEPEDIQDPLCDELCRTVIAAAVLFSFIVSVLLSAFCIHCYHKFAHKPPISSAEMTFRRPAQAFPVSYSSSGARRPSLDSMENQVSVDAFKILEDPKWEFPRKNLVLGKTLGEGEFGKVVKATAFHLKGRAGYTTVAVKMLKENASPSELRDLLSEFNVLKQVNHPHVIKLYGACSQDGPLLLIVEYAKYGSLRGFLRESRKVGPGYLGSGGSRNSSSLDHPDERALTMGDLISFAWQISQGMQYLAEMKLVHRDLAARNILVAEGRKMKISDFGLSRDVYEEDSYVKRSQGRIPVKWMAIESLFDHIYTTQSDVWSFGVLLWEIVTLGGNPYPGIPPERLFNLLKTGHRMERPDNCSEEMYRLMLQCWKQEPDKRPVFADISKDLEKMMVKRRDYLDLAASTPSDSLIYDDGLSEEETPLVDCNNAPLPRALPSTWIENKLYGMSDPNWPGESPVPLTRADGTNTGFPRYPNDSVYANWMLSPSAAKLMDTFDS
Serine/threonine-protein kinase TAO1, sequence (Q7L7X3 whole entry): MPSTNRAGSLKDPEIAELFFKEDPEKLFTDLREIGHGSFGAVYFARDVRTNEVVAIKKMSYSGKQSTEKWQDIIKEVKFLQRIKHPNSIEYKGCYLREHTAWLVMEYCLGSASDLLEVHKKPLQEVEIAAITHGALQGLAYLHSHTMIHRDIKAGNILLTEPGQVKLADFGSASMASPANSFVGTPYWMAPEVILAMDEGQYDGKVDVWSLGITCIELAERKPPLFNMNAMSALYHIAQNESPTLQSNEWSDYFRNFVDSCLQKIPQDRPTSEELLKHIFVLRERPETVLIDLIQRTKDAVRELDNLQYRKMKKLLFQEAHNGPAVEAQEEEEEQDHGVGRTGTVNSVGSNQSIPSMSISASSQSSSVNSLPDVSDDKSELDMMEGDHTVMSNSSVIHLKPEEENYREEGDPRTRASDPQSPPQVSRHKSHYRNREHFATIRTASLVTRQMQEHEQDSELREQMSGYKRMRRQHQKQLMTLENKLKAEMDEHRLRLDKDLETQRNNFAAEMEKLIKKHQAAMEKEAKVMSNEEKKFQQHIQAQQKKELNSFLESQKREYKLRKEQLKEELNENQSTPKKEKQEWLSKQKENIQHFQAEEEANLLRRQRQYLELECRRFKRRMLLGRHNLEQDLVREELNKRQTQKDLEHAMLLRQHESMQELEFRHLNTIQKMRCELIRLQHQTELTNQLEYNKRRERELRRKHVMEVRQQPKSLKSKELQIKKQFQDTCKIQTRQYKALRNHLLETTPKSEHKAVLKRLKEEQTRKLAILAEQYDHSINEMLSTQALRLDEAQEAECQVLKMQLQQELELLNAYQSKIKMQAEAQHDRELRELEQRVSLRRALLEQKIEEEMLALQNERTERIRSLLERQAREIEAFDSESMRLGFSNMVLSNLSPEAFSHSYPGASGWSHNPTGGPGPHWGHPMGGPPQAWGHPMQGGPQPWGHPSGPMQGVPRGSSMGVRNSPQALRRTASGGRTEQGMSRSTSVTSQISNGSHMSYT
Aurora kinase A, sequence (O14965 whole entry): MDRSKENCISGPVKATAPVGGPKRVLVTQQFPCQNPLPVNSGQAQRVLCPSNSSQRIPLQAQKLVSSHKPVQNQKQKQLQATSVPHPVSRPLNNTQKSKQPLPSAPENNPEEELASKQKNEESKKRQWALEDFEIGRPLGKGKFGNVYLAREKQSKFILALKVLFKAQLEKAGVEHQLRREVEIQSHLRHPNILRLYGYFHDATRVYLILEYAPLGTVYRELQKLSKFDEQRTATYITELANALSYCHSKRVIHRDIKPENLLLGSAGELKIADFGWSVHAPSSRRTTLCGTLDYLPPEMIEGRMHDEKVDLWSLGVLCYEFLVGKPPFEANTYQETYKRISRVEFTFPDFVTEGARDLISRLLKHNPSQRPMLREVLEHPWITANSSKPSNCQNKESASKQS

NC1CCC(Nc2nc(Cl)cc(-c3c[nH]c4ncccc34)n2)CC1 (stereo not drawn)
Ki [1]: 0.0631 µM (active)
pKi [1]: 7.2
Ki [2]: 0.00126 µM (active)
pKi [2]: 8.9
Ki [3]: 2 µM (active)
pKi [3]: 5.7
Ki [4]: > 3.98 µM (inactive)
Ki [5]: 2.51 µM (active)
pKi [5]: 5.6
Ki (Aurora kinase A): > 1.58 µM (inactive)
Ki [6]: > 2.51 µM (inactive)
Ki [7]: 1.26 µM (active)
pKi [7]: 5.9
Ki [8]: > 6.31 µM (inactive)
Ki [9]: 0.0398 µM (active)
pKi [9]: 7.4

CCCCCCCCCCCCCCCC[N+](C)(C)C
AC50 [10]: 12.7 µM (active)

CCOC(=O)c1ccc(NC2=CC(=O)C(=O)c3ccccc32)cc1
IC50 (Hexokinase HKDC1): 43.9 µM (inactive)

O=C(O)C1CN(Cc2ccc(OCc3ccccc3)cc2Cl)C1
Ki [1]: > 2.51 µM (inactive)
Ki [2]: > 3.98 µM (inactive)
Ki [3]: > 3.16 µM (inactive)
Ki [4]: > 3.98 µM (inactive)
Ki [5]: > 3.16 µM (inactive)
Ki (Aurora kinase A): > 1.58 µM (inactive)
Ki [6]: > 2.51 µM (inactive)
Ki [7]: > 5.01 µM (inactive)
Ki [8]: > 6.31 µM (inactive)
Ki [9]: > 3.16 µM (inactive)
